Assay results as given in US20100204202A1, “DRUG FOR ALLEVIATING MOTOR COMPLICATIONS OR PSYCHIATRIC SYMPTOMS OF PARKINSON'S DISEASE” (Asubio Pharma Co., Ltd., priority 2007, published 2010).
Where a name gives a salt, the structure may show the parent alone.

Columns and labels:
[1] = system: Parkinson's disease model rats; assay: Levodopa-induced striatal dopamine release and rotational behavior, brain microdialysis in Parkinson's disease model rats; type: in vivo, rat; conditions: for rotational behavior of the rats: 3 and 10 mg/kg i.p.
Method: For preparing Parkinson's disease model rats by unilateral nigrostriatal dopamine nerve destruction, Crl: CD (SD) male rats supplied by Charles River Japan (8 weeks old at start of test) were used. About 30 minutes before injection of 6-hydroxydopamine, the norepinephrine reuptake inhibitor desipramine (25 mg/kg) was intraperitoneally administered, then the rat head was fixed to a brain stereotaxic apparatus under anesthesia by intraperitoneal administration of pentobarbital (40 mg/kg). 6-hydroxydopamine (total amount 8 μg/4 μL) including ascorbic acid was dissolved in physiological saline, then was injected at two locations of the right medial forebrain bundle (at 1.8 mm posterior to the bregma, 2.0 mm right-lateral to the median line and 8.3 mm ventral to the surface of the skill and 4.5 mm to the rear from the bregma, 1.4 mm to the right from the midline, and a depth of 8.5 mm from the cranium) through a microinjection syringe at a flow rate of 1.0 μL/min over 4 minutes, then was allowed to stand for 5 minutes. To confirm the success of dopamine nerve destruction after about 3 weeks from the above surgery, the rotational behavior of the rats after subcutaneous administration of the dopamine receptor agonist apomorphine (0.05 mg/kg) was measured using a rotational behavior-measuring equipment (Rotameter 6ch System, Muromachi Kikai Co., Ltd.). Rats rotating over 100 times in the opposite direction to the injection in the one hour right after apomorphine administration were judged to have unilateral nigrastriatal dopamine nerve destruction and were used for the subsequent tests.
Furthermore, from about one week later, the rats were given repeated intraperitoneal administration of levodopa (25 mg/kg)+peripheral dopa-decarboxylase inhibitor benserazide (10 mg/kg) (hereinafter referred to as “repeated doses of levodopa”) (twice a day, from Monday to Friday) for 6 weeks.
For the brain microdialysis guide cannule insertion surgery, under anesthesia by pentobarbital (40 mg/kg intraperitoneal administration), the head of each rat was fixed on a brain stereotaxic apparatus, then a brain microdialysis guide cannule (Carnegie Medicin PC12 guide cannule) was inserted into the right striatum (0.5 mm in front of the bregma, 3.0 mm from the midline to the right, and 4.0 mm deep from the cranium) and dental cement was used to fix it to the rat skull. […] The obtained dialysate was immediately measured for dopamine concentration using a high performance liquid chromatography system with an electrochemical detector (LC-ECD). Further, every 30 minutes after levodopa administration, the number of rotations in 5 minutes to the side opposite to the 6-hydroxydopamine injection side was visually measured. […]

[2] = system: Parkinson's disease model rats; assay: Rate of incidence of rotational behavior induced by levodopa dosage (response failure); type: in vivo, rat; conditions: sustained subcutaneous administration (osmotic pump) from week 6 of repeated levodopa, 2 weeks
Method: Therefore, the inventors prepared Parkinson's disease model rats in the same way as in Example 4 and treated the rats by repeated doses of levodopa (twice a day, Monday to Friday) for 7 weeks. The presence or absence of the rotational behavior of each rat was recorded at approximately 1 hour after the administration of levodopa during the repeated dosing period. […] Therefore, from weeks 1 to 5 of repeated doses of levodopa, the inventors recorded the presence of any rotational behavior of the rats each time, then studied the effects of the tested substances from week 6 of repeated doses of levodopa by implanting an Aizet® osmotic pump filled with SUN N4057 or physiological saline (2ML4, volume 2 ml, flow rate 2.5 μl/hr) subcutaneously at the rats. In the 2 weeks after that, the inventors similarly continued to record the presence of any rotational behavior of the rats 1 hour after levodopa administration.

[3] = Solubility (choice of solvent); type: physicochemical; conditions: physiological saline
Method: Note that the SUN […] was subcutaneously administered right before levodopa administration, the sarizotan was orally administered about 20 minutes before levodopa dosage in accordance with above-mentioned known reports (Bibbiani F. et al., Neurology, 2001, 57, p. 1829-1834), and the Example Compound 4 of Japanese Patent Publication No. 2005-298402A was subcutaneously administered about 30 minutes before levodopa dosage in accordance with the above-mentioned Japanese Patent Publication No. 2005-298402A. Further, for the solvent, for SUN […] and Example Compound 4 of Japanese Patent Publication No. 2005-298402A, physiological saline was used.

| solubility (in words) [3] | Compound | increase of the amount of striatal dopamine release due to levodopa ([1]; 3 and 10 mg/kg i.p. 20 minutes before levodopa 25 mg/kg, week 6 of repeated levodopa) | peak time of the amount of dopamine release ([1]; 3 and 10 mg/kg i.p. before levodopa) | rotational behavior of the rats ([1]; 150 to 210 minutes after levodopa dosage) | rotational behavior of the rats ([1]; 30 minutes after levodopa administration) | rate of incidence of rotational behavior [2] |
| --- | --- | --- | --- | --- | --- | --- |
|  | O=C1c2ccccc2OC=C(Cl)N1CCCCN1CC=C(c2ccccn2)CC1 [SUN N4057, 3-chloro-4,5-dihydro-4-{4-[4-(2-pyridyl)-1,2,3,6-tetrahydropyridin-1-yl]butyl}-1,4-benzoxazepin-5-one.dihydrochloride-dihydrate] | inhibitory action | delayed | increase | decreased | action on recovery |
| poor in solubility | Cl.Cl.Fc1ccc(-c2cncc(CNC[C@H]3CCc4ccccc4O3)c2)cc1 [Sarizotan, 1-[(2R)-3,4-dihydro-2H-chromen-2-yl]-N-{[5-(4-fluorophenyl)pyridin-3-yl]methyl}methanamine dihydrochloride] |  |  |  |  |  |
